# Test results from patent US20260083722A1, “BIFUNCTIONAL DEGRADERS COMPRISING ELECTROPHILIC PROTACS THAT ENGAGE DCAF1 AND PHARMACEUTICAL COMPOSITIONS COMPRISING THE SAME” (THE SCRIPPS RESEARCH INSTITUTE, priority 2022, published 2026).
# Experiments:
# [1] = biological target: T1, recombinant DCAF1-WT (a.a.'s 1046-1396) (Homo sapiens, UniProt Q9Y4B6); experiment: gel-ABPP with recombinant purified DCAF1-WT doped into HEK293T cell proteome; assay type: binding
# T1 construct: form of DCAF1 containing the WD40 domain (amino acids (a.a.'s) 1046-1396); made in house
# Source text: FIG. 2 that azetidine acrylamides stereo- and site-selectively engage recombinant DCAF1_C1113. (A) Domain map of DCAF1 with the region used for recombinant protein studies marked in a bracket (a.a.'s 1046-1396) and C1113 highlighted in red. (B) Crystal structure of a DCAF1-Vpx complex (pdb: 5AJA). DCAF1 (a.a.'s 1046-1396) is shown in cyan, Vpx is shown in yellow, and C1113, which is located at the DCAF1-Vpx interface is shown in red. (C) Structures of alkyne-modified azetidine acrylamides MY-11A (5) and MY-11B (6). (D) Gel-ABPP showing the concentration-dependent reactivity of MY-11A and MY-11B (1 h) reactivity with recombinant, purified DCAF1-WT or the DCAF1-C1113A mutant (0.06 μg/μL of DCAF1 protein per sample) doped into HEK293T cell proteome (1 μg/μL). MY-11A/B labeling of proteins was visualized by CuAAC conjugation to an azide-rhodamine tag followed by SDS-PAGE and in-gel fluorescence scanning. Results are from a single experiment representative of two independent experiments. (E) Gel-ABPP showing the concentration-dependent effects of MY-1A and MY-1B on MY-11B reactivity with DCAF1-WT. Samples were treated with MY-1A/B for 2 h, followed by MY-11B (25 μM, 1 h) and analyzed as described in (D). Left, quantification of data presented as mean values±SEM from two independent experiments. Right, representative gel-ABPP results. (D, E) Lower images are Coomassie blue-stained gels corresponding to ABPP gels shown in upper images.
# (A) Structures of candidate electrophilic PROTACs YT41R (7), YT41S (8), YT47R (9), and YT47S (10). (B) Gel-ABPP showing the concentration-dependent effects of YT41R and YT47R on MY-11B reactivity with DCAF1-WT protein (0.06 μg/μL of DCAF1 protein per sample) doped into HEK293T cell proteome (1 μg/μL). Also shown are the effects of YT41S and YT47S tested at a single concentration (100 μM). Samples were treated with heterobifunctional compounds for 2 h, followed by MY-11B (25 μM, 1 h) and analyzed as described in FIG. 2D. Left, representative gel-ABPP results. Lower image is Coomassie blue-stained gel corresponding to ABPP gel shown in upper image. Right, quantification of data presented as mean values±SEM from two independent experiments.
# DCAF1 is a multi-domain substrate receptor for CRL4 ligases (FIG. 2A) that has diverse physiological and disease functions, including being co-opted by the HIV-2 virus to promote degradation of the antiviral host protein SAMHD1^27-28. […] We verified the stereo- and site-selective engagement of DCAF1_C1113 by azetidine acrylamides using alkynylated analogues of MY-1A and MY-1B (MY-11A (5) and MY-11B (6), respectively; FIG. 2C). For these experiments, we doped into HEK293T cell lysates a recombinantly expressed and purified form of DCAF1 containing the WD40 domain (amino acids (a.a.'s) 1046-1396), in complex with the CRL4 adaptor protein DDB1^31, and exposed these samples to varying concentrations of MY-11A or MY-11B. After 1 h, we assessed MY-11A and MY-11B engagement of DCAF1 by copper-catalyzed azide-alkyne cycloaddition (CuAAC)^32 with an azide-rhodamine reporter tag followed by SDS-PAGE and in-gel fluorescence scanning^33. […] We used gel-ABPP to quantify an in vitro target engagement value (TE50) of approximately 25 μM (95% C.I.=13-38 μM) for MY-1B labeling of DCAF1 (FIG. 2E, left).
# [2] = tested on: ternary complex of FKBP12 and DCAF1; experiment: co-immunoprecipitation of DCAF1 with HA-FKBP12 in HEK293T cells (ternary complex); assay type: cell-based; conditions: FLAG-DCAF1-WT, 5 μM, 2 h, in the presence of MG132 (10 μM)
# Description: (A) Left, western blots showing effects of YT47R and YT47S on the immunoprecipitation (IP) of FLAG-DCAF1-WT or FLAG-DCAF1-C1113A with HA-FKBP12 in HEK293T cells co-expressing these proteins. Cells were treated with YT47R or YT47S (5 μM) for 2 h in the presence of MG132 (10 μM) prior to lysis and IP with an anti-HA antibody and western blotting for the indicated proteins (DCAF1, FKBP12, and ubiquitinated protein). Right, bar graphs quantifying DCAF1 (top) and ubiquitination (Ub) (bottom) in the indicated IP groups. (B) Left, western blots showing effects of YT47R and YT47S on the IP of endogenous DCAF1 with HA-FKBP12 in HEK293T cells expressing HA-FKBP12. Cells were treated with YT47R or YT47S (5 μM) for 2 h in the presence of MG132 (10 μM) prior to lysis and IP with an anti-HA antibody and western blotting for the indicated proteins (DCAF1, FKBP12). Right, bar graph quantifying DCAF1 in the indicated IP groups. For (A, B), data are mean values±SEM for three independent experiments. Statistical significance was calculated with unpaired two-tailed Student's t-tests comparing YT41R/YT47R- and DMSO-treated cells. **P<0.01, ****P<0.0001. (C) MS-ABPP quantification of IA-DTB labeling of the indicated cysteines in DCAF1 from FLAG-DCAF1-WT-expressing HEK293T cells treated with the indicated concentrations of YT47R (3 h) relative to cells treated with DMSO. Data represent average values±SEM from four independent experiments. Statistical significance was calculated with unpaired two-tailed Student's t-tests comparing compound to DMSO treated cells. *P<0.1.
# Finally, we investigated whether electrophilic PROTACs induce a stable ternary complex of FKBP12 with DCAF1 and promote FKBP12 ubiquitination. […] A ternary complex was not observed in cells expressing the DCAF1-C1113A mutant (FIG. 6A), supporting that YT47R induces this complex through site-specifically reacting with C1113. […] In considering possible reasons why this ternary complex formation with endogenous DCAF1 was insufficient to support the degradation of recombinantly expressed FKBP12 (FIG. 4A), we speculate that our current PROTACs (YT41R, YT47R) may require further improvements in cellular properties to enable robust targeted protein degradation mediated by physiological concentrations of DCAF1.
# DCAF1-C1113A mutant = biological target: T2, DCAF1-C1113A mutant (Homo sapiens, UniProt Q9Y4B6, C1113A); experiment: gel-ABPP with recombinant DCAF1-C1113A mutant doped into HEK293T cell proteome; assay type: binding; conditions: 1 h
# T2 construct: the region used for recombinant protein studies marked in a bracket (a.a.'s 1046-1396); made in house
# Source text: FIG. 2 that azetidine acrylamides stereo- and site-selectively engage recombinant DCAF1_C1113. (A) Domain map of DCAF1 with the region used for recombinant protein studies marked in a bracket (a.a.'s 1046-1396) and C1113 highlighted in red. (B) Crystal structure of a DCAF1-Vpx complex (pdb: 5AJA). DCAF1 (a.a.'s 1046-1396) is shown in cyan, Vpx is shown in yellow, and C1113, which is located at the DCAF1-Vpx interface is shown in red. (C) Structures of alkyne-modified azetidine acrylamides MY-11A (5) and MY-11B (6). […] MY-11A/B labeling of proteins was visualized by CuAAC conjugation to an azide-rhodamine tag followed by SDS-PAGE and in-gel fluorescence scanning. […] Samples were treated with MY-1A/B for 2 h, followed by MY-11B (25 μM, 1 h) and analyzed as described in (D). Left, quantification of data presented as mean values±SEM from two independent experiments. […]
# DCAF1 is a multi-domain substrate receptor for CRL4 ligases (FIG. 2A) that has diverse physiological and disease functions, including being co-opted by the HIV-2 virus to promote degradation of the antiviral host protein SAMHD1^27-28. […] After 1 h, we assessed MY-11A and MY-11B engagement of DCAF1 by copper-catalyzed azide-alkyne cycloaddition (CuAAC)^32 with an azide-rhodamine reporter tag followed by SDS-PAGE and in-gel fluorescence scanning^33. […]
# HA-FKBP12 = biological target: T3, HA-FKBP12 (Homo sapiens, UniProt P62942); experiment: HA-FKBP12 abundance by Western blotting in transfected HEK293T cells; assay type: cell-based; conditions: 5 μM, 1 h pre-treatment
# T3 construct: expressed in transfected cells; host or cells: HEK293T
# Source text: (A) Left, western blots showing concentration-dependent effects of YT47R (upper) and YT41R (lower) on FKBP12 abundance in HEK293T cells expressing HA-FBKP12 with or without co-expression of FLAG-DCAF1. Right, quantification of HA-FKBP12 abundance in the indicated experimental groups. (B) Left, western blots showing effects of YT47R versus YT47S (upper) and YT41R versus YT41S (lower) on FKBP12 abundance in HEK293T cells co-expressing HA-FBKP12 and FLAG-DCAF1. Right, quantification of HA-FKBP12 abundance in the indicated experimental groups. (C) Western blots showing effects of YT47R (left blots) and YT41R (right blots) on FKBP12 abundance in HEK293T cells co-expressing HA-FBKP12 and either FLAG-DCAF1-WT or FLAG-DCAF1-C1113A mutant. Quantification of HA-FKBP12 abundance in the indicated experimental groups is shown in the adjacent bar graphs. For (A-C), FKBP12 abundance was determined at 24 h post-treatment with compounds, and data are mean values±SEM for three independent experiments. Statistical significance was calculated with unpaired two-tailed Student's t-tests comparing YT41R/YT47R- and DMSO-treated cells. ***P<0.001, ****P<0.0001.
# (A) Left, western blots showing effects of proteasome (MG132) and Neddylation (MLN4924) inhibitors (1 h pre-treatment) on YT47R- and YT41R-dependent degradation of FKBP12 in HEK293T cells co-expressing HA-FBKP12 and FLAG-DCAF1. FKBP12 abundance was determined at 24 h post-treatment with YT47R or YT41R. Right, quantification of HA-FKBP12 abundance in the indicated experimental groups. (B) Left, western blots showing effects of the FKBP12 ligand SLF (20 μM) or DCAF1 ligand MY-11B (1 h pre-treatment with 20 μM SLF or 5 μM MY-11B) on YT47R- and YT41R-dependent degradation of FKBP12 in HEK293T cells co-expressing HA-FBKP12 and FLAG-DCAF1. FKBP12 abundance was determined at 24 h post-treatment with YT47R or YT41R. Right, quantification of HA-FKBP12 abundance in the indicated experimental groups. (C) Left, western blots showing effects of MY-11A or MY-11B (5 μM, 1 h pre-treatment) on YT47R- and YT41R-dependent degradation of FKBP12 in HEK293T cells co-expressing HA-FBKP12 and FLAG-DCAF1. FKBP12 abundance was determined at 24 h post-treatment with YT47R or YT41R. Right, quantification of HA-FKBP12 abundance in the indicated experimental groups. For (A-C), data are mean values±SEM for three-five independent experiments. Statistical significance was calculated with unpaired two-tailed Student's t-tests comparing YT41R/YT47R- and DMSO-treated cells. ****P<0.0001.
# Figure S3. Concentration-dependent degradation of FKBP12 by DCAF1-directed electrophilic PROTACs. Top, western blots showing concentration-dependent effects of YT47R and YT41R on FKBP12 abundance in HEK293T cells co-expressing HA-FBKP12 and FLAG-DCAF1. Data are mean values±SEM for four independent experiments. Statistical significance was calculated with unpaired two-tailed Student's t-tests comparing YT41R/YT47R- and DMSO-treated cells. *P<0.1, **P<0.01, ***P<0.001, ****P<0.0001.
# Figure S4. Time-dependent degradation of FKBP12 by DCAF1-directed electrophilic PROTACs. Top, western blots showing time-dependent effects of YT47R and YT41R (2 μM each) on FKBP12 abundance in HEK293T cells co-expressing HA-FBKP12 and FLAG-DCAF1. Data are mean values±SEM for four independent experiments. Statistical significance was calculated with unpaired two-tailed Student's t-tests comparing YT41R/YT47R- and DMSO-treated cells. ****P<0.0001.
# We next treated HEK293T cells co-transfected with FLAG epitope-tagged full length DCAF1 (a.a.'s 1-1507) and HA (hemagglutinin) epitope-tagged FKBP12 with a concentration range of YT41R or YT47R and, after 24 h, measured HA-FKBP12 abundance by Western blotting.
# T1 sequence (Q9Y4B6 1046-1396): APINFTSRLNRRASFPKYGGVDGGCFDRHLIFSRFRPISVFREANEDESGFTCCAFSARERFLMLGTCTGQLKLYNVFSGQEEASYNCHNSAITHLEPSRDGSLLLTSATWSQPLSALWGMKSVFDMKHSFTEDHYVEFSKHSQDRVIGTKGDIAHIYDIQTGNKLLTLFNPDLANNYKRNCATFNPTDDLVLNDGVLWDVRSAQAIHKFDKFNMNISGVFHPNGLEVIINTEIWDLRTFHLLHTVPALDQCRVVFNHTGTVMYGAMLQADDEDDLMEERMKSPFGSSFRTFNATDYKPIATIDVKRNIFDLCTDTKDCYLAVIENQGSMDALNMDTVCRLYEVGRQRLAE
# T1 sequence (Q16531 whole entry partner, the tested form may be a part): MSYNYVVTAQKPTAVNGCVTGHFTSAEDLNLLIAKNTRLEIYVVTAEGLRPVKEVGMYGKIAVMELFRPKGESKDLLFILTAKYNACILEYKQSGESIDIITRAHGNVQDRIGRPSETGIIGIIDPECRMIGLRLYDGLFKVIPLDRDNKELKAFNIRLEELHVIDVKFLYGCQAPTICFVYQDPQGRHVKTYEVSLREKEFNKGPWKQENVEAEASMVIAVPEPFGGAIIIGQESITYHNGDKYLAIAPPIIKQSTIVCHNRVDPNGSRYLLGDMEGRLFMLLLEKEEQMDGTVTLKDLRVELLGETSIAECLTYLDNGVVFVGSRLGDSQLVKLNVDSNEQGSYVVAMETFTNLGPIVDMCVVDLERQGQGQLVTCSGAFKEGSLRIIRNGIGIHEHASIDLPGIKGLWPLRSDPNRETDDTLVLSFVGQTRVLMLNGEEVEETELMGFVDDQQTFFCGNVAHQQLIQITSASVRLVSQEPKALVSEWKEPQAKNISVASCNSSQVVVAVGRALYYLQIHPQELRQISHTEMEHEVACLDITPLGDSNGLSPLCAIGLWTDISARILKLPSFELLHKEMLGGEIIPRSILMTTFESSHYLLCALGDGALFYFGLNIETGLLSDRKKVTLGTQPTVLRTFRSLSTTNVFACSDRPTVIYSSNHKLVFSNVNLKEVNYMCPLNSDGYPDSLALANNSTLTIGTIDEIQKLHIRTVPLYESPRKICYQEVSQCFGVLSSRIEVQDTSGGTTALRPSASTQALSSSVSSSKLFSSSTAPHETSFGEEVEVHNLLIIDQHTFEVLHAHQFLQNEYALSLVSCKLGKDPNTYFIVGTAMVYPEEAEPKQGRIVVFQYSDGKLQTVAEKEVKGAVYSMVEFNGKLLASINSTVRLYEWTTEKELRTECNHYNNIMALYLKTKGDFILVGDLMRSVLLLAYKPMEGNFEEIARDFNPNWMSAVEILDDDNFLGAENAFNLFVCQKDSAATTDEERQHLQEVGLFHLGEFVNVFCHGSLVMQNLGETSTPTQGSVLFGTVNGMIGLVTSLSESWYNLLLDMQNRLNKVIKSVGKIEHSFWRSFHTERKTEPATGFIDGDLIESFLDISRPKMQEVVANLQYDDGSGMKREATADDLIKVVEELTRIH
# T3 sequence (P62942 whole entry): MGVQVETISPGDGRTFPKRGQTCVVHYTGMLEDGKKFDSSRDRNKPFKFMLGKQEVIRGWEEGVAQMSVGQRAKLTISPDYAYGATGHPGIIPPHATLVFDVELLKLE
# T2 sequence (Q9Y4B6 1046-1396 C1113A): as the sequence (Q9Y4B6 1046-1396) above, with C68A counted along it
# T2 sequence (Q16531 whole entry partner): as the sequence (Q16531 whole entry partner, the tested form may be a part) above
SMILES,"inhibition of MY-11B probe reactivity with recombinant DCAF1 ([1]; 2 h, then MY-11B 25 μM 1 h, YT41S and YT47S at single concentration 100 μM)",ternary complex of FKBP12 and DCAF1 [2],labeling of DCAF1-C1113A mutant by alkyne probe (DCAF1-C1113A mutant),"labeling of recombinant DCAF1 by alkyne probe ([1]; 1 h, DCAF1-WT, CuAAC azide-rhodamine, in-gel fluorescence)",effect on YT41R/YT47R-mediated degradation of HA-FKBP12 (HA-FKBP12)
C=CC(=O)N1C[C@@H](c2ccc(C(=O)NCCOCCOCCOCCNC(=O)COc3cccc([C@@H](CCc4ccc(OC)c(OC)c4)OC(=O)[C@@H]4CCCCN4C(=O)C(=O)C(C)(C)CC)c3)cc2)[C@H]1C(=O)Nc1cccc2cccnc12 [YT47S],did not impair,not,–,–,–
"C#Cc1ccc([C@H]2CN(C(=O)C=C)[C@H]2C(=O)Nc2cccc3cccnc23)cc1 [MY-11B, (2R,3S)-1-acryloyl-3-(4-ethynylphenyl)-N-(88uinoline-8-yl) azetidine-2-carboxamide]",–,–,blocked by mutation of C1113 to alanine,much greater concentration-dependent labeling,blocked
